Test results published in patent publication US20090196917A1, “Liposomal Formulations of Hydrophobic Lactone Drugs in the Presence of Metal Ions” (University of Kentucky Research Foundation, priority 2008, published 2009).
Where “and” joins values, the source holds several entries; their conditions need not be identical. Equal values may be shown once.

Assays:
[1] = after 24 hrs, novel approach (active loading)
[2] = Active loading of DB-67 into Ca(OAc)2 DSPC/m-PEG DSPE vesicles (Example 15); conditions: end of loading
[3] = after intravenous administration, animal data; cited from earlier work
[4] = Active loading of DB-67 into liposomes, calcium acetate gradient (Example 14); conditions: liposomes made by active loading procedure, pH and calcium ion gradient, 40° C.
[5] = pH 7.4

retained drug [1]: approximately 50%
intravesicular DB-67 concentration [2]: ~21 mM and ~10 mg/mL
suspension drug concentration (all drug being entrapped) [4]: ≤ 3 mM
half-life for release (liposome retention) [5]: 22 ± 6 h
Structure (SMILES): CC[C@@]1(O)C(=O)OCc2c1cc1n(c2=O)Cc2c-1nc1ccc(O)cc1c2[Si](C)(C)C(C)(C)C [DB-67, silatecan 7-t-butyldimethylsilyl-10-hydroxycamptothecin]
lactone to total AUC [3]: > 90%
